From patent US20070292351A1, “Assay for efficacy of histone deacetylase inhibitors” (Methylgene, Inc., priority 2006, published 2007)
Read-outs that look alike come from different tables or passages of the source.

Assays:
[1] = test system: human peripheral white cells; test: Microarray gene expression analysis, peripheral white cells ex vivo; type: cell-based; settings: WBC ex vivo
Protocol: (§1) Whole blood from either consenting healthy volunteers or consenting patients was centrifuged at 2500 rpm for 10 minutes at ambient temperature in a Sorvall RT-7 centrifuge (Mandel Scientific Co., Guelph, Ontario). Plasma was removed and buffy coat was collected. Five volumes of Erythrocyte Lysis Buffer (EL) (Qiagen Canada Inc., Mississauga, Ontario) were added into buffy coat. Buffy coat was incubated on ice for 20 minutes before it was centrifuged at 400 g for 10 minutes at 4° C. Supernatant was removed and buffy coat was washed twice with EL buffer and re-centrifuged. Buffy coat was resuspended in RPMI media and cells were counted with trypan blue exclusion. To isolate PBMCs, buffy coat cells were centrifuged over Lymphoprep (Axis-Shield, 1114544), and any remaining erythrocytes in the sample were lysed by treatment with EL lysis buffer (Qiagen, 79217). The cell pellets are washed and then re-suspended in RPMI containing 10% FBS.
Biological analysis was performed using Biointerpreter software.

[2] = test system: implanted human NSCLC H460 tumors; test: Semi-quantitative PCR of p21 and MT3 in H460 tumors in nude mice; type: in vivo, nude mice (Balb/c); settings: 100 mg/kg oral
Protocol: FIG. 5 Induction of MT3 and p21 in implanted human NSCLC H460 tumors in vivo in nude mice. Nude mice (Balb/c) bearing human H460 tumors were treated with 100 mg/kg MGCD0103 or 0.5% HEC (Vehicle) by oral administration. After 6 h or 24 h, three mice from each group were sacrificed, their tumors harvested and analyzed. Panel A: p21 and MT3 RNA levels quantified by conventional semi-quantitative PCR, normalized to β-actin. Panel B: H4Ac level detected by immunoblot analysis, normalized to total histones.
RNA was extracted from 8×10^6 cells using the Qiagen RNeasy Mini kit (cat#74106, Qiagen, Missisauga Ont.) following the manufacturer's instructions. RT reaction was performed using the Expand Reverse Transcriptase kit from Roche (Cat#1 785 834 Roche Applied Biosciences, Laval, Que) with 1 μg total RNA together with 1 μl oligo(dT) primer (cat#y01212, Invitrogen-Canada, Burlington, Ont). cDNA was synthesized using an Eppendorf Mastercycler gradient PCR apparatus (Brinkmann Instruments Canada LTD., Mississauga, Ontario), using a two cycle protocol. For the 1st cycle reaction mixture (0.5 μl H2O, 4 μl of 5× Buffer, 2 μl DTT, 2 ul of 10 mM dNTPs, 0.5 μl RNAsin (cat#N211B, Promega, Fisher Scientific, Whitby, Ont.) and […] of the Expand Reverse Transcriptase (Cat#1785834, Roche, Laval, Quebec)) was incubated at 65° C. for 10 minutes and then set on ice. A second cycle was performed at 42° C. for 1 hour. The resulting cDNA products were kept at 4° C. until used.
One ul of the resulting cDNA was used for every amplification reaction with 18.9 ul H2O, 1.25 ul of 10 mM dNTPs, 0.5 ul of each primer pair, 2.5 ul of 10× Buffer. The PCR reaction was carried out in an Eppendorf Mastercycler gradient. The sequences of the primers used for the amplification of selected biomarkers, as well as the details of the PCR reaction cycles are featured below. All buffers came from Expand Long Template PCR system (Roche, Laval, Quebec, Cat#11681842001). All primers were synthesized by Invitrogen (Invitrogen-Canada, Burlington, Ont.) […]

HDAC activity = test: Fluorescence-based whole cell HDAC enzyme assay in patients' peripheral white blood cells; type: in vivo, human
Protocol: At day 8 (72 h after the third dose), peripheral white blood cells were tested for HDAC activity by whole cell assay
as §1
Human patients with either solid tumors or leukemia/MDS diseases were enrolled in phase I studies with consensus forms. MGCD0103 were dosed into patients orally every other day (day 1, day 3, day 5 […]). Blood samples were withdrawled by using the Vacutainer sodium-heparin blood collection tubes (Becton Dickinson Laboratories, Franklin Lakes, N.J.) and shipped to the test site within 24 hours on ice-pack. Baseline samples were drawn immediately prior to the first drug dose, while the 24 hour samples were drawn at 24 hours post the first drug dose. The 48 hours samples were drawn at 48 hours post the first dose. For the 1 week samples, blood was drawn 72 hours after day 5 dose (3 accumulated doses during week 1).
Freshly trypsinized cells or cells in suspension were dispensed in 96-well black Costar E1A/RIA plates (Corning Inc., Corning, N.Y.). We typically used 5×10^4 to 2×10^5 cells per well, and 8×10^5 white blood (mouse or human) cells/per well. Small molecule substrate Boc-Lys(Ac)-AMC (Bachem Biosciences Inc., King of Prussia, Philadelphia) were added to cell suspension with the final concentration of 300 uM. Cells were placed in a 37° C. incubator with 5% CO2 for 90 minutes (in the case of white blood cells, we incubated for 60 min). Fluorescence was read immediately before adding stop mixture to get a background. […] Fluorescence was developed for 15 minutes at 37° C. and read in a fluorometer (SPECTRAMAX GeminiXS, Molecular Devices, Sunnyvale, Calif.) with an excitation wavelength at 360 nm, emission at 470 nm, and a cutoff of 435 nm.

With Nc1ccccc1NC(=O)c1ccc(CNc2nccc(-c3cccnc3)n2)cc1 [MGCD0103] the fold induction at 1 µM ([1]; probe A_23_P16523, read-out: Fold Induction of GDF15 transcription) was 18.8, the fold induction at 1 µM ([1]; probe A_23_P41344, read-out: Fold Induction of EREG transcription) was 12.8 and the fold induction at 1 µM ([1]; probe A_23_P52336, read-out: Fold Induction of UNC5B transcription) was 2.66. For the same compound, the fold induction at 1 µM ([1]; probe A_23_P94754, read-out: Fold Induction of TNFSF15 transcription) was 4.43, the fold induction at 1 µM ([1]; probe A_23_P114947, read-out: Fold Induction of RGS2 transcription) was 4.43 and the fold induction at 1 µM ([1]; probe A_23_P142506, read-out: Fold Induction of GADD45B transcription) was 2.9. For the same compound, the fold induction at 1 µM ([1]; probe A_23_P149019, read-out: Fold Induction of BAI2 transcription) was 2.69, the fold induction at 1 µM ([1]; probe A_23_P151046, read-out: Fold Induction of KLRC1 transcription) was 3.12 and the fold induction at 1 µM ([1]; probe A_23_P259071, read-out: Fold Induction of AREG transcription) was 32.6. The fold induction at 1 µM ([1]; probe A_23_P315273, read-out: Fold Induction of MT3 transcription) was 5.16, the fold induction at 1 µM ([1]; probe A_24_P5856, read-out: Fold Induction of TNFSF9 transcription) was 3.32 and the fold induction at 1 µM ([1]; probe A_24_P217520, read-out: Fold Induction of EREG transcription) was 10.5. The “persistence of gene induction (p21, MT3) in tumors” value [2] was “at least 24 h”, the “induction of MT3 RNA in tumors” value ([2]; 6 h or 24 h (FIG. 5A)) was “induction” and the “induction of p21 RNA in tumors” value ([2]; 6 h or 24 h (FIG. 5A)) was “induction”. The “inhibition of HDAC activity in peripheral white cells” value (HDAC activity; AML Patient A with clinical response (FIG. 9)) was “Time-dependent inhibition”, the HDAC inhibition (HDAC activity; AML patient (Patient A) with clinical response, day 8) was 68% and the “HDAC inhibition in vivo in peripheral white blood cells” value (HDAC activity; patients with solid tumors, one week (three doses per week), day 8 (FIG. 7)) was “dose-dependent HDAC inhibition”. The “average HDAC inhibition” value (HDAC activity; three other AML patients (no response), day 8) was < 5%.
